Measured values as given in PMC9354954, “Assessing Bioavailability and Bioactivity of 4-Hydroxythiazolidine-2-Thiones, Newly Discovered Glucosinolate Degradation Products Formed During Domestic Boiling of Cabbage” (Frontiers in Nutrition, 2022).

Tests used:
[1] = system: Nrf2 target gene expression in alveolar macrophages and bronchial epithelial cells; settings: intervention with 150 μM; cited from earlier work
endothelial cells = settings: cited from earlier work
[2] = system: cultured hepatocytes from human liver transplants; settings: range of 10 μM and 50 μM; cited from earlier work
HepG2 = system: HepG2; set-up: method as in PMID 14578469; settings: HepG2, 72 h of incubation time; read-out: IC50 (50% inhibition of cell growth); cited from earlier work
[3] = cited from earlier work
[4] = set-up: method as in doi:10.1002/14356007.a09_001; settings: cited from earlier work
[5] = set-up: method as in PMID 8000299, PMID 9865427; settings: 10–12 h urine after consumption of horseradish or a mustard paste; cited from earlier work
GSK-3α = system: GSK-3α; set-up: method as in PMID 31553649; settings: read-out: IC50 (50% inhibition) to inhibit isoform GSK-3α; cited from earlier work
GSK-3β = system: GSK-3β; set-up: method as in PMID 31553649; settings: read-out: IC50 (50% inhibition) to inhibit GSK-3β; cited from earlier work
[6] = system: NAD(P)H dehydrogenase quinone 1 (NQO1); experiment: NQO1 activity in HepG2 cells; format: cell-based, human; settings: 2 μM, 24 h, negative control 145 ± 8
Protocol: (§1) The effect of allyl HTT or 4-MSOB HTT on NAD(P)H dehydrogenase quinone 1 (NQO1) activity was tested for HepG2 cells and HCT116 pTRAF cells. HCT116 pTRAF is a cell line that was transfected with the pTRAF^Nrf2/HIF/NFκB [Johansson et al. ([29])], as described by Kipp et al. ([30]). HCT116 pTRAF cells were cultivated in McCoy's 5A medium + 1% penicillin/streptomycin + 10% FBS + 1% GlutaMAX + 0.2 mg/mL hygromycin B. HepG2 cells in RPMI medium were seeded in a 6-well-plate (sterile, Sarsted, Nümbrecht, Germany) with a density of 350,000 cells/well, and HCT116 pTRAF cells in culture medium without hygromycin B with a density of 100,000 cells/well. After 48 h of incubation under cell culture conditions, the medium was exchanged with the fresh medium as a negative control and a medium with concentrations of 1 μM and 100 μM of allyl HTT or 4-MSOB HTT. Medium containing 2 μM auranofin was used as a positive control. After 24 h of incubation under cell culture conditions, NQO1 activity was analyzed according to Müller et al. ([31]), and the results were reported as mean ± SD. Additionally, the t-test for independent samples per variable was performed to test if concentration-dependent differences exist.

[7] = system: NAD(P)H dehydrogenase quinone 1 (NQO1); experiment: NQO1 activity in HCT116 pTRAF cells; format: cell-based; settings: 2 μM, 24 h, negative control 51 ± 5
Protocol: as §1

[8] = Antioxidant potential, ABTS assay; settings: compared to compound free blank
Protocol: (§2) To evaluate the potential of allyl HTT and 4-MSOB HTT to act as antioxidants, ABTS and DPPH were used as model radicals and Trolox as reference antioxidants based on Shalaby and Shanab ([28]). In total, 1.5 mg of ABTS and 0.26 mg potassium peroxodisulfate were dissolved in 4 mL of pure water and incubated in the dark overnight at room temperature. Afterward, 36 mL of MeOH were added to obtain the fresh ABTS working solution. In the case of the DPPH assay, 1.1 mg of DPPH were dissolved in 4 mL of MeOH and incubated for 2 h in the dark at 4°C, followed by the addition of 36 mL of MeOH to obtain the fresh DPPH working solution. Standards of Trolox, allyl HTT, and 4-MSOB HTT were prepared in water/MeOH (90/10, v/v%) at concentrations in the range of 6.25–100 μM. To detect the antioxidant potential, 100 μL of standard or water/MeOH (90/10, v/v%) as control were added to 1,000 μL of ABTS or DPPH working solution, and the extinction was measured directly after mixing and after 6 min of incubation in the dark with a spectrometer (UviLine 9100, Schott Instruments, Mainz, Germany) at 734 nm in the case of ABTS assay and 515 nm in DPPH assay (each prepared as duplicate). The results are reported as mean ± SD of the reduction of the extinction compared to the control.

[9] = Antioxidant potential, DPPH assay; settings: compared to compound free blank
Protocol: as §2

In the case of `C[S+]([O-])CCCCN=C=S` (stereo not shown) [sulforaphane], the “stimulation in Nrf2 target gene expression” value [1] is listed as “no stimulation”, the “concentrations inducing apoptosis and cytotoxicity” value (endothelial cells) is listed as 20 to 40 µM and the cytotoxicity [2] is listed as “no significant cytotoxicity”. The IC50 (HepG2) was 13 µM and the bioavailability [3] was “approximately 40%”.
In the case of `CN1CCSC1=S` [N-methyl-2-thiazolidinethione], the toxicity [4] is given as “low toxicity”.
In the case of `C=CCN=C=S` [allyl ITC, allyl isothiocyanate], the IC50 (HepG2) is listed as 36 µM and the “recovery of formed allyl ITC metabolites in urine” value [5] is listed as 42–54%.
In the case of `OC1(c2ccccc2)CSC(=S)N1Cc1ccncc1` (stereo not shown) [COB-187], the IC50 (GSK-3α) is given as 0.022 µM and the IC50 (GSK-3β) is given as 0.011 µM.
In the case of `CC(=O)OC[C@H]1O[C@@H]([S-])[C@H](OC(C)=O)[C@@H](OC(C)=O)[C@@H]1OC(C)=O.CCP(CC)CC.[Au+]` [auranofin, 1-thio-β-D-glucopyranosatotriethyl phosphine gold-2,3,4,6-tetraacetate], the NQO1 activity [6] is reported as 153 ± 4 mU/mg protein and the NQO1 activity [7] is reported as 114 ± 7 mU/mg protein.
In the case of `Cc1c(C)c2c(c(C)c1O)CCC(C)(C(=O)O)O2` (racemic) [Trolox, (±)-6-hydroxy-2,5,7,8-tetramethylchromane-2-carboxylic acid, reference compound], the “Relative signal reduction of the extinction value of the radical ABTS” value (“Relative signal reduction … of the radical ABTS” below) ([8]; 6.25 µM) is reported as 1.3 ± 0.4%, the “Relative signal reduction … of the radical ABTS” value ([8]; 12.5 µM) is reported as 1.9 ± 0.4% and the “Relative signal reduction … of the radical ABTS” value ([8]; 25 µM) is reported as 9.3 ± 0.5%. The “Relative signal reduction … of the radical ABTS” value ([8]; 50 µM) was 16.5 ± 0.4%, the “Relative signal reduction … of the radical ABTS” value ([8]; 100 µM) was 31.2 ± 0.4% and the “Relative signal reduction of the extinction value of the radical DPPH” value (“Relative signal reduction … of the radical DPPH” for short) ([9]; 6.25 µM) was 0.8 ± 0.3%. For the same compound, the “Relative signal reduction … of the radical DPPH” value ([9]; 12.5 µM) was 2.8 ± 0.3%, the “Relative signal reduction … of the radical DPPH” value ([9]; 25 µM) was 3.5 ± 0.4% and the “Relative signal reduction … of the radical DPPH” value ([9]; 50 µM) was 8.8 ± 0.6%. The “Relative signal reduction … of the radical DPPH” value ([9]; 100 µM) was 17.5 ± 1.5%.
